In test [1] the test system is S100A12. As to the kind of experiment: Scalp tape strip S100A12 protein. In kind it is in vivo, human. The protocol: (§1) Subjects are enrolled in a double-blind, randomized study for all test groups and have Baseline and Week 3 measurements of scalp health taken for flaking, itch and scalp health endpoints. Subjects take home a test product(s) and are instructed on use of test products throughout the study. Test products are solubilized in a hydroalcoholic leave-on formulation. Azoxystrobin raw material is sourced from AK Scientific Inc. (Union City, Calif.) as >97% pure. Azoxystrobin scalp treatment is prepared from a slurry of azoxystrobin in ethanol that is formulated to 0.1% (w/v) in a base chassis of 50% ethanol, 0.35% Ultrez 21 (rheology modifier), 0.05% neutrol TE and water (q.s.). […] Biomarkers of scalp health, including biomarkers of inflammation, itch, oxidative stress and barrier integrity are assessed by non-invasive tape strip sampling of the scalp surface to determine therapeutic resolution. All biomarkers are analyzed from D-Squame® scalp tape samples that are collected from the scalp of subjects before and after scalp treatment with either azoxystrobin or vehicle (Baseline, and Week 3 respectively). These are extracted and analyzed according to published methods (International Journal of Dermatology 2011, 50, 102-113, incorporated by reference herein). […] S100A12 protein is analyzed to determine the impact of scalp treatment on active inflammatory disease. […]

For test [2], the system named is Myeloperoxidase. As to the kind of experiment: Scalp tape strip myeloperoxidase protein. Format: in vivo, human. Here is the method: as §1, with “Myeloperoxidase” for “S100A12”, “oxidative stress and potential oxidative damage.” for “on active inflammatory disease.”
The mark [3] stands for this setting: 0.1% leave-on daily, Week 3, scalp tape strips.

Marks after values point to notes of the source that are not given here.

With `CO/C=C(/C(=O)OC)c1ccccc1Oc1cc(Oc2ccccc2C#N)ncn1` [Azoxystrobin], the “S100A12 Results % Change from Baseline” value in test [1] (setting [3]) was −71.2* %. In test [1] (compared to a placebo control), the “reduction of S100A12 levels” value came to 71%. For the same compound, the “Myeloperoxidase Results % Change from Baseline” value in test [2] (setting [3]) is recorded as 63.7* %. Besides, in test [2] (compared to a placebo control), the reduction in myeloperoxidase is 64%.

Values taken from patent publication US20220192955A1, “AZOXYSTROBIN EFFICACY IN SCALP HEALTH” (The Procter & Gamble Company, priority 2020, published 2022).
